Experimental findings from PMC8231556, “Inhibiting Endothelial Cell Function in Normal and Tumor Angiogenesis Using BMP Type I Receptor Macrocyclic Kinase Inhibitors” (Cancers, 2021) are described below.

Assay in all cases: radiometric kinase profiling (33 PanQinase)
Holding throughout (type): biochemical

One assay deals with T1, NEK1 (Homo sapiens, UniProt Q96PY6).
T1 construct: purchased ProQinase (33PanQinase Activity Assay)
T1 sequence (Q96PY6 1-1258): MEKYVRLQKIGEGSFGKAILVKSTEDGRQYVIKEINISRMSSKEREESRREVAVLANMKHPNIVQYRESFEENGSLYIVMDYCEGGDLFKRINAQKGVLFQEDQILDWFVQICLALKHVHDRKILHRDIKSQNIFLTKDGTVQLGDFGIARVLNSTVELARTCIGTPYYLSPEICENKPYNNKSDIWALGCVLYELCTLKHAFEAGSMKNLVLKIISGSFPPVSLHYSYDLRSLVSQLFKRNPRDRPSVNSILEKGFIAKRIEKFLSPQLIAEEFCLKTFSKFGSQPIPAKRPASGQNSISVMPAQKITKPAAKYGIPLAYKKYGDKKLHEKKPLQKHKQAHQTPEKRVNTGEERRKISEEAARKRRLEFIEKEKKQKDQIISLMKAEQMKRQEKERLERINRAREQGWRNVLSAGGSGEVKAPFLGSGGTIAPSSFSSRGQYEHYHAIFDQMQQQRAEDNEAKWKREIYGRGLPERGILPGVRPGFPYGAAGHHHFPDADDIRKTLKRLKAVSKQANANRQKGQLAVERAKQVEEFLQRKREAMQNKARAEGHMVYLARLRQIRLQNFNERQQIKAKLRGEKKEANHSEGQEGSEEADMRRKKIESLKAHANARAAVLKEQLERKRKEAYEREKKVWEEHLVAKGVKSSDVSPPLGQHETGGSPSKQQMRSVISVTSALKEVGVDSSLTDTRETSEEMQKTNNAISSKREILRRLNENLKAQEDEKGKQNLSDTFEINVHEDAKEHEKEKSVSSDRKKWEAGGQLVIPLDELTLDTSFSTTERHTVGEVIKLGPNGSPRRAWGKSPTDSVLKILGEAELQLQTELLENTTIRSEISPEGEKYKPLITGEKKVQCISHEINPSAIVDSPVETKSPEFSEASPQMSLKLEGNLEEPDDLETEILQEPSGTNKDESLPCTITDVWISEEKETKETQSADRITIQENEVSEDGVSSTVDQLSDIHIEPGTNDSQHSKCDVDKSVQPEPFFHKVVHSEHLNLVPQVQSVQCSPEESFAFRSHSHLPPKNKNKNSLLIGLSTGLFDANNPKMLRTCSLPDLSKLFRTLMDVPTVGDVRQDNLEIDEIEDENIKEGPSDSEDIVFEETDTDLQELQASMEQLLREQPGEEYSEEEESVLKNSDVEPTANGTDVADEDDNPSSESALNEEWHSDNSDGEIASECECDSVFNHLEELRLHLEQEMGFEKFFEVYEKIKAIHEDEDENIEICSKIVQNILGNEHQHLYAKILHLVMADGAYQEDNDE
As to conditions: read-out: Inhibitory effect (%) NEK1. As for the experimental part: (§1) The kinase inhibition profile of the compounds was determined by testing 96 protein kinases’ activity using a radiometric protein kinase assay (33 PanQinase® Activity Assay, Proqinase, Germany). In brief, 10 µL of non-radioactive ATP solution (in H2O), 25 µL of assay buffer/[γ-33 P]-ATP mixture, 5 µL of 0.1 μM the tested compound in 10% DMSO and 10 µL of enzyme/substrate were mixed in 96-well FlashPlatesTM (Perkin Elmer, Boston, MA, USA). The reaction was conducted at 30 °C for 60 min. To stop the reaction, 50 µL of 2% (v/v) H3PO4 was added into the protein kinase reaction cocktails. After which, with 200 µL 0.9% (w/v) NaCl twice, the incorporation of ^33 Pi (counting of “cpm”) was determined with a microplate scintillation counter (Wallac Microbeta, Boston, MA, USA). All protein kinase assays were performed using a BeckmanCoulter Biomek 2000/SL robotic system (Brea, CA, USA). The residual activity (in %) for each compound was normalized to 100% enzyme activity (untreated control) and background (negative control).

The next assay has as its target T2, GSK3B (Homo sapiens, UniProt P49841).
T2 construct: purchased ProQinase (33PanQinase Activity Assay)
As to conditions: read-out: Inhibitory effect (%) GSK3B. As for the experimental part: as §1

The target of another assay is T3, CHEK2 (Homo sapiens, UniProt O96017).
T3 construct: purchased Proqinase, Germany
As to conditions: read-out: Inhibitory effect (%) CHEK2. As for the experimental part:
as §1

The target in the next assay is T4, LCK (Homo sapiens, UniProt P06239).
T4 construct: purchased ProQinase (33PanQinase Activity Assay)
As to conditions: read-out: Inhibitory effect (%) LCK. As for the experimental part: as §1

The target of the next assay is T5, NTRK1 (Homo sapiens, UniProt P04629).
T5 construct: purchased ProQinase (33PanQinase Activity Assay)
As to conditions: read-out: Inhibitory effect (%) NTRK1. As for the experimental part: as §1

A further assay addresses T6, CDK1_cyclinA2 (Homo sapiens, UniProt P06493).
T6 construct: purchased Proqinase, Germany
As to conditions: read-out: Inhibitory effect (%) CDK1_cyclinA2. As for the experimental part:
as §1

The target of a further assay is T7, LIMK1 (Homo sapiens, UniProt P53667).
T7 construct: purchased ProQinase (33PanQinase Activity Assay)
As to conditions: read-out: Inhibitory effect (%) LIMK1. As for the experimental part:
as §1

The target of another assay is T8, MAP2K1 (Homo sapiens, UniProt Q02750).
T8 construct: purchased ProQinase (33PanQinase Activity Assay)
As to conditions: read-out: Inhibitory effect (%) MAP2K1. As for the experimental part: as §1

Another assay has as its target T9, IGF1R (Homo sapiens, UniProt P08069).
T9 construct: purchased ProQinase (33PanQinase Activity Assay)
As to conditions: read-out: Inhibitory effect (%) IGF1R. As for the experimental part: as §1

The next assay has as its target T10, AURKB (Homo sapiens, UniProt Q96GD4).
T10 construct: purchased Proqinase, Germany
As to conditions: read-out: Inhibitory effect (%) AURKB. As for the experimental part:
as §1

The target of the next assay is T11, PDK1 (Homo sapiens, UniProt O15530).
T11 construct: purchased ProQinase (33PanQinase Activity Assay)
T11 sequence (O15530 1-556): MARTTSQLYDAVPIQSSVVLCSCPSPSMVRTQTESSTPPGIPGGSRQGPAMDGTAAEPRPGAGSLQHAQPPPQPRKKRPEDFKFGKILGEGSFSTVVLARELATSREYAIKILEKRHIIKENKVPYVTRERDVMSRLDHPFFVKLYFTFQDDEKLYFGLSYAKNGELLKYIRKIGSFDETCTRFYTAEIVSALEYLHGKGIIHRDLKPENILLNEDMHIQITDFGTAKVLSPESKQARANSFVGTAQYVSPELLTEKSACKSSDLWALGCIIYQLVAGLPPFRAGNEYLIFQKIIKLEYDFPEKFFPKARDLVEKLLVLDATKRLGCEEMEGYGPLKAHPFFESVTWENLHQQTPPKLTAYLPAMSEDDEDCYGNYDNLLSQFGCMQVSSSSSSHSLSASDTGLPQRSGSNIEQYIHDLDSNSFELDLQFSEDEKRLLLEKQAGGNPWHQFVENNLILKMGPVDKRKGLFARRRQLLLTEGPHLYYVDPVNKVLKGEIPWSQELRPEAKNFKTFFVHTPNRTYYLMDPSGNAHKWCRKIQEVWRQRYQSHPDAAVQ
As to conditions: read-out: Inhibitory effect (%) PDK1. As for the experimental part:
as §1

T6 sequence (P06493 whole entry): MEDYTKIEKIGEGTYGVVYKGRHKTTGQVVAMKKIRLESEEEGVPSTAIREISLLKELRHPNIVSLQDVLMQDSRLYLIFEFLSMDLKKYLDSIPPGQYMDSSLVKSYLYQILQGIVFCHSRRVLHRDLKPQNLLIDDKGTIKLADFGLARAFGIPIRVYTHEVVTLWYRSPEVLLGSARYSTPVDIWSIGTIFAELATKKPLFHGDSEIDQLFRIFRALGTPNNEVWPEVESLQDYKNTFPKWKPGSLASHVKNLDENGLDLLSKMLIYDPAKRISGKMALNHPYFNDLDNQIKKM
T6 sequence (P20248 whole entry partner): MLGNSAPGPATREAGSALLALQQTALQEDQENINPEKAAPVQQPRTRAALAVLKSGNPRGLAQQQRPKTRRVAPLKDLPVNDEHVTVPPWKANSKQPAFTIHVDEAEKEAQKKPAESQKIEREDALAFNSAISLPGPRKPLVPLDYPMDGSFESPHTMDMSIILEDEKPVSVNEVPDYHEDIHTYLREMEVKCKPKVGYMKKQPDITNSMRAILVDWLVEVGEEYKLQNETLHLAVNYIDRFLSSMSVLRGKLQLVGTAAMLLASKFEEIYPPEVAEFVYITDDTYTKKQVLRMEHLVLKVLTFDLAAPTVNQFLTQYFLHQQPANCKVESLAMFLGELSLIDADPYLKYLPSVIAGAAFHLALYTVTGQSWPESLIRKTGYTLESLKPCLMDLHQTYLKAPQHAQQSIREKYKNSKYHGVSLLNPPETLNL
T8 sequence (Q02750 whole entry): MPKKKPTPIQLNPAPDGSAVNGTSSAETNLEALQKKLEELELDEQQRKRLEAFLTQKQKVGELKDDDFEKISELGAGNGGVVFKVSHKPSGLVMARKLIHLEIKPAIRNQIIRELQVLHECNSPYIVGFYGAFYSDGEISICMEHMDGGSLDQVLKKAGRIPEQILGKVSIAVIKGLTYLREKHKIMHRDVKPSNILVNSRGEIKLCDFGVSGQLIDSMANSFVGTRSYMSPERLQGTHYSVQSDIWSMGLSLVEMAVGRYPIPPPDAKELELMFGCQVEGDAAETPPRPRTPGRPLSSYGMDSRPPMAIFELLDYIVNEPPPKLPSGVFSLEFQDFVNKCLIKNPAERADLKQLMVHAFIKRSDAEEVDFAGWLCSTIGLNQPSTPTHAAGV
T9 sequence (P08069 31-1367): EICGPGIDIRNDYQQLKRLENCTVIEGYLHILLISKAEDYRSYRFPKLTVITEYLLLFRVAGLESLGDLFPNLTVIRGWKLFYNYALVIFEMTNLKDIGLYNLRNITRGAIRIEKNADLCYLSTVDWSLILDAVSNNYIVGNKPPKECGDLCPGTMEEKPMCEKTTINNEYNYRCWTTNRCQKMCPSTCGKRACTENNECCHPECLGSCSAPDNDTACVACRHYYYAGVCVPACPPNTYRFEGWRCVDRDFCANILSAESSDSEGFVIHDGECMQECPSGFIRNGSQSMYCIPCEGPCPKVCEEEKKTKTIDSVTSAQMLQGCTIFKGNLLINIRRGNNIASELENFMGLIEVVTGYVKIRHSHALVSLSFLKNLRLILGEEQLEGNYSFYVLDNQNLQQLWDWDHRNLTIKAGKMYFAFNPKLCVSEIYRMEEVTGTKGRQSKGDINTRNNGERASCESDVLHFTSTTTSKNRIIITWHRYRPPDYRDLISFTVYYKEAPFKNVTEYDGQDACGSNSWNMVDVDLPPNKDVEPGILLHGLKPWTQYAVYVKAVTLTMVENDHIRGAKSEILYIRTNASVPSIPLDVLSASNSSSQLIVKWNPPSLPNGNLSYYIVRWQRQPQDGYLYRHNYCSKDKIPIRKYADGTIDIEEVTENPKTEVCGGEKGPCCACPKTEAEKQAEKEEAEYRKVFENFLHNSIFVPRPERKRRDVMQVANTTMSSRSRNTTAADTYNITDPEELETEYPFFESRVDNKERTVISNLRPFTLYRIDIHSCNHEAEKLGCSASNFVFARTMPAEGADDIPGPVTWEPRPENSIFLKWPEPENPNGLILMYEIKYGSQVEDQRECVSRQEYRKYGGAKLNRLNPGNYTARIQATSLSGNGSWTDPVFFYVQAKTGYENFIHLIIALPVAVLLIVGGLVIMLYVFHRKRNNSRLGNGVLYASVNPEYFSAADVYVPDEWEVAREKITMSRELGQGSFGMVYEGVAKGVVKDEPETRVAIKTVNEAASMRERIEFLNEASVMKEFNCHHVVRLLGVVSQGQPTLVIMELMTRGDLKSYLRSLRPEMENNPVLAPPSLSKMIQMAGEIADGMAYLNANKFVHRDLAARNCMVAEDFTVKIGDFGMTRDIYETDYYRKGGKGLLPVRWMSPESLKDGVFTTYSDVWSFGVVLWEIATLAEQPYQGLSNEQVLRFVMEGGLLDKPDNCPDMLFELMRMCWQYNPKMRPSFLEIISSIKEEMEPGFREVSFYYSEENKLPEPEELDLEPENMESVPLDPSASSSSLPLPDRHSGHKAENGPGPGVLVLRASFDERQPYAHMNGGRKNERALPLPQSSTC
T3 sequence (O96017 whole entry): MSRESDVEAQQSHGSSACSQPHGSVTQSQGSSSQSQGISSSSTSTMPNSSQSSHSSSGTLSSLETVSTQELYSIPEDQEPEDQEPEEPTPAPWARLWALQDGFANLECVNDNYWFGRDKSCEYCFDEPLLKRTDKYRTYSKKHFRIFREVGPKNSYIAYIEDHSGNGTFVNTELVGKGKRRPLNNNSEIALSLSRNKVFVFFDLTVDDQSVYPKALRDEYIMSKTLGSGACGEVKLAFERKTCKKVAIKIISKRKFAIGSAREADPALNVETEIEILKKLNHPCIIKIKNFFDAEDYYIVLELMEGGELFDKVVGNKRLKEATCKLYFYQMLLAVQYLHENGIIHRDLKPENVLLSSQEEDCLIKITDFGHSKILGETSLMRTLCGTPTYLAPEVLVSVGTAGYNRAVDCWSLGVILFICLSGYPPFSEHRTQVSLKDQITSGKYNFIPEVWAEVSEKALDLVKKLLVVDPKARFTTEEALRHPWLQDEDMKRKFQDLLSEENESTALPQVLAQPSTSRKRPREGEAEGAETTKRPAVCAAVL
T7 sequence (P53667 whole entry): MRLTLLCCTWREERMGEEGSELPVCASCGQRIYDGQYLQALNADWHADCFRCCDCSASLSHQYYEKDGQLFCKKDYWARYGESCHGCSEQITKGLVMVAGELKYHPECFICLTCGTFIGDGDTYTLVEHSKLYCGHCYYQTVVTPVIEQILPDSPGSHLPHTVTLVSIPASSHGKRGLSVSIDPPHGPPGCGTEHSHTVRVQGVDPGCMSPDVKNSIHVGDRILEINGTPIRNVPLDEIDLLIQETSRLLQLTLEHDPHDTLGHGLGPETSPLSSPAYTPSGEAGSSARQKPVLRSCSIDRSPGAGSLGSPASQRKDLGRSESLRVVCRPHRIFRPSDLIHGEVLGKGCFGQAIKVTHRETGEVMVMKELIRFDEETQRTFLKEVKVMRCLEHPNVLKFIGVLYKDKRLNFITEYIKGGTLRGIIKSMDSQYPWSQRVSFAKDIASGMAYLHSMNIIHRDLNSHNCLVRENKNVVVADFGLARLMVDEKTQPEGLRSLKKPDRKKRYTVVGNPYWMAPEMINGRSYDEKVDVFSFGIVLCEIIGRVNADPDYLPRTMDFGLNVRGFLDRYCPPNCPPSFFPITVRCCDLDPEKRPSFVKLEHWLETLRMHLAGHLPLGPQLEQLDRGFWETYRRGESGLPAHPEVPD
T2 sequence (P49841 whole entry): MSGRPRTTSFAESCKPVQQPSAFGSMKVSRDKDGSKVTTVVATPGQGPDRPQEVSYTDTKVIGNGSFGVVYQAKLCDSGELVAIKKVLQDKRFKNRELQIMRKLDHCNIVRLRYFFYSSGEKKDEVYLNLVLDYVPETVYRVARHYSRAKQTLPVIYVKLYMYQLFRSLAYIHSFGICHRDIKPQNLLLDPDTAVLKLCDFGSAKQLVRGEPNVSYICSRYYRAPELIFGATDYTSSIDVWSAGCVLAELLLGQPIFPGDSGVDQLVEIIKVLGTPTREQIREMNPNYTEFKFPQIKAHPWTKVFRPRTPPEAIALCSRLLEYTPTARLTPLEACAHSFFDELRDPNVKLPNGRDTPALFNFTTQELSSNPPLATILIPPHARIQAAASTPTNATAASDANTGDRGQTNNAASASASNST
T10 sequence (Q96GD4 whole entry): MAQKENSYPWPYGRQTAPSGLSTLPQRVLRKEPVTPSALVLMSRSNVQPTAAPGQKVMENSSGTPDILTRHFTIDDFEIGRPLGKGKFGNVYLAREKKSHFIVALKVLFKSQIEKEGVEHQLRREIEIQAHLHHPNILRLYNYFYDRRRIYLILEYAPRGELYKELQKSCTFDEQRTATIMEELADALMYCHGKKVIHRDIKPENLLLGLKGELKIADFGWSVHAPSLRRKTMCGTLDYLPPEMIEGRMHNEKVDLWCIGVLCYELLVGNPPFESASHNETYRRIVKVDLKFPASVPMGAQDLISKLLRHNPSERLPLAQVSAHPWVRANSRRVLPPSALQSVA
T4 sequence (P06239 whole entry): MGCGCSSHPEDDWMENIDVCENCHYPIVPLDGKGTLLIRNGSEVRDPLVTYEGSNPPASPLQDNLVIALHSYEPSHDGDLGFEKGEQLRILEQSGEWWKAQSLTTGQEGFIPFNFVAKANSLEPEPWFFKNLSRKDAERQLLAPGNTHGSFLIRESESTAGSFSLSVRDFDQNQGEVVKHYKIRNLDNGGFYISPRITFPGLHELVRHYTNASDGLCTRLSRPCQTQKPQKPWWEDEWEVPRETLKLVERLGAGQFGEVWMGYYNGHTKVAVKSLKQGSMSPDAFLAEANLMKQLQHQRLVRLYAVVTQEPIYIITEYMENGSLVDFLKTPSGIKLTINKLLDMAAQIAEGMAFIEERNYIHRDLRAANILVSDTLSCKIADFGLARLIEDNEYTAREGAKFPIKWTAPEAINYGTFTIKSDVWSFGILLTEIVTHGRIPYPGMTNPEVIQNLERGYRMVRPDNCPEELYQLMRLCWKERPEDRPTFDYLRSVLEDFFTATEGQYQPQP

As for `c1ccc2c(-c3cnn4cc(-c5ccc(N6CCNCC6)cc5)cnc34)ccnc2c1` [LDN-193189, reference compound], the inhibition at 0.1 µM on NEK1 was -11.9%; at GSK3B, -28.2%; on CHEK2, -0.88%; on LCK, 25.4%; on NTRK1 it was 14.1%; on CDK1_cyclinA2, -2.18%. Also, the inhibition at 0.1 µM on LIMK1 was 8.92%; at MAP2K1, 11.1%; at IGF1R, 8.78%; at AURKB it was 3.93%; at PDK1, -8.72%.
For `CN1CCc2cccc(c2)Nc2nccc(n2)N2CCCc3cc(ccc32)C1` [OD16], the inhibition at 0.1 µM on NEK1 was -6.3%; on GSK3B, 1.33%; on CHEK2, 7.12%; at LCK, 6.7%; on NTRK1, -37.9%; at CDK1_cyclinA2, -8.88%. Besides, the inhibition at 0.1 µM at LIMK1 was 30.3%; on MAP2K1 it was 5.48%; at IGF1R, -39.5%; at AURKB it was 4.48%; on PDK1 it was -7.16%.
For `CN1CCC(=O)NCCNc2ccn3ncc(c3n2)-c2cccc(c2)C1` [OD29], the inhibition at 0.1 µM on NEK1 is 12.6%; at GSK3B, 3.34%; at CHEK2, -0.87%; on LCK it was 35.6%; on NTRK1, 69.6%; at CDK1_cyclinA2 it was 23.7%. For the same compound, the inhibition at 0.1 µM on LIMK1 was 1.15%; on MAP2K1, 7.68%; on IGF1R, 13.9%; at AURKB it was -11.2%; on PDK1, -1.4%.
